Measurements: US11419806B2, “Prebiotic oral care methods using a saccharide” (Colgate-Palmolive Company, priority 2013, dated 2022)

Experiments:
Test in all cases: Twenty-four hour optical density growth in BHI
Format in all cases: cell-based
[1] = system: Actinomyces naeslundii; conditions: A naeslundii
Protocol: (§1) The extent of growth of the tested bacteria in response to selected saccharides (myo-inositol, D-lactitol, D-turanose and N-acetyl-D-mannosamine) was investigated by setting up growth curves in a nutritionally rich medium (brain heart infusion broth (BHI), Oxoid), over 24 hours. Late exponential growth phase liquid cultures were prepared by transferring the respective bacterium from blood agar plates to BHI and overnight incubation at 37° C. in an anaerobic atmosphere for A. viscosus, V. parvula, F. nucleatum, P. gingivalis, P. intermedia, T. forsythia, A. naeslundii, and C. sputigena, and in a 5% CO2 environment for S. salivarius, S. sanguinis, S. mitis, A. actinomycetemcomitans, S. mutans, S. sobrinus and S. gordonii. Overnight cultures were transferred to BHI and adjusted to a concentration of 1×10^7 CFU/ml (colony forming units per ml) by measuring the optical density at 600 nm (OD600) (BioRad SmartSpec 3000). For each strain, 200 μl of the bacterial suspension was added to a 96-well plate containing 20 μl of the respective saccharides. Final concentrations of the saccharides were set to 5, 10, 20 and 25 μmol/ml. […] Plates were incubated as previously described.
(§2) For each combination of bacterium/saccharide, and for each of their respective controls (i.e. the particular bacterium in the nutritionally rich medium with no saccharide), the optical density was measured at 630 nm (OD630) at 0 h and 24 h (Thermo Scientific Multiskan Ascent). Additionally, the OD630 for combinations of bacterium/saccharides grown in a 5% CO2 environment were also measured every hour between 0 h and 9 h.
(§3) The experiment was carried out on three different days (thus providing 3 biological replicas) and on each day the experiment was carried out in quadruple (thus providing 4 technical replicas) for each combination of bacterium with saccharide and for each control. For each day and for each combination, the average (mean) of the values obtained (as detailed above) for the four technical replicas was calculated to provide a single value for each combination on each day. The values shown in Tables 5a,b to 6a,b, below, are the average (mean) of the three single values obtained for each combination of bacterium with saccharide.

[2] = system: Streptococcus sobrinus; conditions: S sobrinus
Protocol: as §1, §2, §3

[3] = system: Streptococcus salivarius; conditions: S salivarius
Protocol: as §1, §2, §3

[4] = system: Streptococcus mitis; conditions: S mitis
Protocol: as §1, §2, §3

[5] = system: Tannerella forsythia; conditions: T forsythia
Protocol: as §1, §2, §3

[6] = system: Streptococcus gordonii; conditions: S gordonii
Protocol: as §1, §2, §3

[7] = system: Aggregatibacter actinomycetemcomitans; conditions: A actinomycetemcomitans
Protocol: as §1, §2, §3

[8] = system: Actinomyces viscosus; conditions: A viscosus
Protocol: as §1, §2, §3

[9] = system: Veillonella parvula; conditions: V parvula
Protocol: as §1, §2, §3

[10] = system: Capnocytophaga sputigena; conditions: C sputigena
Protocol: as §1, §2, §3

[11] = system: Fusobacterium nucleatum; conditions: F nucleatum
Protocol: as §1, §2, §3

[12] = system: S. sanguinis
Protocol: as §1, §2, §3

[13] = system: Porphyromonas gingivalis; conditions: P gingivalis
Protocol: as §1, §2, §3

[14] = system: Streptococcus mutans; conditions: S mutans
Protocol: as §1, §2, §3

[15] = system: Prevotella intermedia; conditions: P intermedia
Protocol: as §1, §2, §3

## O[C@H]1[C@H](O)[C@@H](O)[C@H](O)[C@@H](O)[C@H]1O [Myo-Inositol, (1R,2R,3S,4S,5R,6S)-cyclohexane-1,2,3,4,5,6-hexol]
[1]; 5 μmol/ml
  extent of growth: maximal OD630 over 24 hr divided by maximal OD of control (control = 1): 1.0172
[1]; 10 μmol/ml
  extent of growth: maximal OD630 over 24 hr divided by maximal OD of control (control = 1): 1.0190
[1]; 20 μmol/ml
  extent of growth: maximal OD630 over 24 hr divided by maximal OD of control (control = 1): 1.0051
[1]; 25 μmol/ml
  extent of growth: maximal OD630 over 24 hr divided by maximal OD of control (control = 1): 1.0000
[2]; 5 μmol/ml
  extent of growth: maximal OD630 over 24 hr divided by maximal OD of control (control = 1): 0.9301
[2]; 10 μmol/ml
  extent of growth: maximal OD630 over 24 hr divided by maximal OD of control (control = 1): 0.9360
[2]; 20 μmol/ml
  extent of growth: maximal OD630 over 24 hr divided by maximal OD of control (control = 1): 0.9087
[2]; 25 μmol/ml
  extent of growth: maximal OD630 over 24 hr divided by maximal OD of control (control = 1): 0.9224
[3]; 5 μmol/ml
  extent of growth: maximal OD630 over 24 hr divided by maximal OD of control (control = 1): 0.9359
[3]; 10 μmol/ml
  extent of growth: maximal OD630 over 24 hr divided by maximal OD of control (control = 1): 0.9395
[3]; 20 μmol/ml
  extent of growth: maximal OD630 over 24 hr divided by maximal OD of control (control = 1): 0.9136
[3]; 25 μmol/ml
  extent of growth: maximal OD630 over 24 hr divided by maximal OD of control (control = 1): 0.8905
[4]; 5 μmol/ml
  extent of growth: maximal OD630 over 24 hr divided by maximal OD of control (control = 1): 0.9921
[4]; 10 μmol/ml
  extent of growth: maximal OD630 over 24 hr divided by maximal OD of control (control = 1): 0.9622
[4]; 20 μmol/ml
  extent of growth: maximal OD630 over 24 hr divided by maximal OD of control (control = 1): 0.8975
[4]; 25 μmol/ml
  extent of growth: maximal OD630 over 24 hr divided by maximal OD of control (control = 1): 0.8423
[5]; 5 μmol/ml
  extent of growth: maximal OD630 over 24 hr divided by maximal OD of control (control = 1): 0.9323
[5]; 10 μmol/ml
  extent of growth: maximal OD630 over 24 hr divided by maximal OD of control (control = 1): 0.9359
[5]; 20 μmol/ml
  extent of growth: maximal OD630 over 24 hr divided by maximal OD of control (control = 1): 0.9286
[5]; 25 μmol/ml
  extent of growth: maximal OD630 over 24 hr divided by maximal OD of control (control = 1): 0.9460
[6]; 5 μmol/ml
  extent of growth: maximal OD630 over 24 hr divided by maximal OD of control (control = 1): 0.9888
[6]; 10 μmol/ml
  extent of growth: maximal OD630 over 24 hr divided by maximal OD of control (control = 1): 0.9732
[6]; 20 μmol/ml
  extent of growth: maximal OD630 over 24 hr divided by maximal OD of control (control = 1): 0.9751
[6]; 25 μmol/ml
  extent of growth: maximal OD630 over 24 hr divided by maximal OD of control (control = 1): 0.9954
[7]; 5 μmol/ml
  extent of growth: maximal OD630 over 24 hr divided by maximal OD of control (control = 1): 0.6977
[7]; 10 μmol/ml
  extent of growth: maximal OD630 over 24 hr divided by maximal OD of control (control = 1): 0.7107
[7]; 20 μmol/ml
  extent of growth: maximal OD630 over 24 hr divided by maximal OD of control (control = 1): 0.7396
[7]; 25 μmol/ml
  extent of growth: maximal OD630 over 24 hr divided by maximal OD of control (control = 1): 0.7361
[8]; 5 μmol/ml
  extent of growth: maximal OD630 over 24 hr divided by maximal OD of control (control = 1): 0.8442
[8]; 10 μmol/ml
  extent of growth: maximal OD630 over 24 hr divided by maximal OD of control (control = 1): 0.8574
[8]; 20 μmol/ml
  extent of growth: maximal OD630 over 24 hr divided by maximal OD of control (control = 1): 0.8079
[8]; 25 μmol/ml
  extent of growth: maximal OD630 over 24 hr divided by maximal OD of control (control = 1): 0.7647
[9]; 5 μmol/ml
  extent of growth: maximal OD630 over 24 hr divided by maximal OD of control (control = 1): 0.9050
[9]; 10 μmol/ml
  extent of growth: maximal OD630 over 24 hr divided by maximal OD of control (control = 1): 0.9049
[9]; 20 μmol/ml
  extent of growth: maximal OD630 over 24 hr divided by maximal OD of control (control = 1): 0.8987
[9]; 25 μmol/ml
  extent of growth: maximal OD630 over 24 hr divided by maximal OD of control (control = 1): 0.8933
[10]; 5 μmol/ml
  extent of growth: maximal OD630 over 24 hr divided by maximal OD of control (control = 1): 0.8701
[10]; 10 μmol/ml
  extent of growth: maximal OD630 over 24 hr divided by maximal OD of control (control = 1): 0.8749
[10]; 20 μmol/ml
  extent of growth: maximal OD630 over 24 hr divided by maximal OD of control (control = 1): 0.8545
[10]; 25 μmol/ml
  extent of growth: maximal OD630 over 24 hr divided by maximal OD of control (control = 1): 0.8789
[11]; 5 μmol/ml
  extent of growth: maximal OD630 over 24 hr divided by maximal OD of control (control = 1): 0.9430
[11]; 10 μmol/ml
  extent of growth: maximal OD630 over 24 hr divided by maximal OD of control (control = 1): 0.9489
[11]; 20 μmol/ml
  extent of growth: maximal OD630 over 24 hr divided by maximal OD of control (control = 1): 0.9512
[11]; 25 μmol/ml
  extent of growth: maximal OD630 over 24 hr divided by maximal OD of control (control = 1): 0.9518
[12]; 5 μmol/ml
  extent of growth: maximal OD630 over 24 hr divided by maximal OD of control (control = 1): 0.9429
[12]; 10 μmol/ml
  extent of growth: maximal OD630 over 24 hr divided by maximal OD of control (control = 1): 0.9536
[12]; 20 μmol/ml
  extent of growth: maximal OD630 over 24 hr divided by maximal OD of control (control = 1): 0.8540
[12]; 25 μmol/ml
  extent of growth: maximal OD630 over 24 hr divided by maximal OD of control (control = 1): 0.9077
[13]; 5 μmol/ml
  extent of growth: maximal OD630 over 24 hr divided by maximal OD of control (control = 1): 1.0200
[13]; 10 μmol/ml
  extent of growth: maximal OD630 over 24 hr divided by maximal OD of control (control = 1): 1.0126
[13]; 20 μmol/ml
  extent of growth: maximal OD630 over 24 hr divided by maximal OD of control (control = 1): 0.9758
[13]; 25 μmol/ml
  extent of growth: maximal OD630 over 24 hr divided by maximal OD of control (control = 1): 0.9855
[14]; 5 μmol/ml
  extent of growth: maximal OD630 over 24 hr divided by maximal OD of control (control = 1): 1.1065
[14]; 10 μmol/ml
  extent of growth: maximal OD630 over 24 hr divided by maximal OD of control (control = 1): 1.0553
[14]; 20 μmol/ml
  extent of growth: maximal OD630 over 24 hr divided by maximal OD of control (control = 1): 0.9645
[14]; 25 μmol/ml
  extent of growth: maximal OD630 over 24 hr divided by maximal OD of control (control = 1): 0.9449
[15]; 5 μmol/ml
  extent of growth: maximal OD630 over 24 hr divided by maximal OD of control (control = 1): 0.9519
[15]; 10 μmol/ml
  extent of growth: maximal OD630 over 24 hr divided by maximal OD of control (control = 1): 0.9564
[15]; 20 μmol/ml
  extent of growth: maximal OD630 over 24 hr divided by maximal OD of control (control = 1): 0.9230
[15]; 25 μmol/ml
  extent of growth: maximal OD630 over 24 hr divided by maximal OD of control (control = 1): 0.9158
